Assay results as given in US7166582B2, “Antiallergic composition” (J-Oil Mills, Inc., priority 2003, dated 2007).

Tests used:
IgE = details: Japanese Patent Application Laid-open No. 2001-288093; cited from earlier work
atopic dermatitis = details: Japanese Patent Application Laid-open No. Hei 11-255656; cited from earlier work
[1] = tested on: dermatitis induced by repeated application of hapten on an NC/Nga mouse; assay: Performance Evaluation Test 1: dermatitis induced by repeated application of hapten (PiCl) on NC/Nga mice; type: in vivo, NC/Nga Tnd Crj male mice; details: 0.5% in AIN93G feed; for score of dermatitis (progress of the atopic dermatitis): PiCl induction once a week for five weeks, vs control group, FIGS. 1 and 2
Experimental: The performance of stachyose mixed in livestock feeds was evaluated against the dermatitis induced by repeated application of hapten on an NC/Nga mouse frequently used as an atopic dermatitis model animal (M. Okada et al., Oyo Yakuri/Pharmcometrics, vol. 59, 135–139 (2000)).
(§1) NC/Nga Tnd Crj male mice at six weeks of age (purchased from Nihon Charles River) were habituated for two weeks. The animals decided as healthy were used for the experiments after an observation of general conditions and body weight measurement. The mice were divided into three groups so that the body weight was averaged. One group was composed of nine mice. A purified livestock feed (AIN93G produced by Oriental Yeast Co.) was used as a basic feed. The mice in Group 1 (a control group) was fed with the purified feed, while the mice in Groups 2 and 3 were fed with a feed prepared by adding the test samples as shown In Table 1 in the basic feed.
Stachyose used in this test was purified to a purity of 98% by ion exchange chromatography after extracting from soybeans with 70% ethanol. Saccharose used in this test was purchased from Wako Junyaku Kabushiki Kaisha.
The mice at eight weeks of age were used for sensation as follows. […]
The symptoms of the atopic dermatitis were observed as follows. The skin condition was observed twice a week starting from a day before the first induction, and the following items were evaluated based on the criteria of clinical syndromes of the human atopic dermatitis. […]
(§2) The score of dermatitis, serum total IgE concentration, and the average body weight and standard deviation thereof were calculated. The significant difference was evaluated by the Student's t-test. A significance level of 5% was evaluated as significant, and the results of the Student's t-test were expressed by dividing into a level of less than 5% (P<0.05) and less than 1% (P<0.01).

[2] = tested on: conventional grade NC/Nga mice that spontaneously start the atopic dermatitis; assay: Performance Evaluation Test 2: spontaneous atopic dermatitis in conventional grade NC/Nga mice; type: in vivo, Conventional grade female NC/Nga mice; details: feed supplemented with 1% stachyose
Excerpt: The effect of stachyose on the dermatitis was investigated using conventional grade NC/Nga mice that spontaneously start the atopic dermatitis without applying any haptens (H. Matsuda et al., International Immunology, vol. 9, 461–466 (1997)).
Conventional grade female NC/Nga mice at four weeks of age (purchased from Nihon SLC) were habituated for one week. The mice were divided into two groups so that the body weight was averaged. One group was composed of six mice. All the mice were freely fed on the purified livestock feed (AIN93G) before grouping, and the stachyose administration group was fed on a feed supplemented with 1% stachyose after grouping. The skin conditions were observed and evaluated once per two weeks from the day of start of grouping. The evaluation method was the same as in performance evaluation method 1.

serum total IgE = assay: Serum total IgE concentration by EIA in PiCl-sensitized NC/Nga mice; type: in vivo, NC/Nga Tnd Crj male mice; details: 0.5% in AIN93G feed; blood on 43rd day after administration; vs control group; FIG. 4
Excerpt: as §1
The serum total IgE concentration was measured as follows. The blood was extracted on day four before administration, and on 43 rd day after administration (the day for starting administration is counted as the first day). The blood (200 μL) is sampled from the orbital plexus venosus using a heparinated capillary. […]
as §2

| Compound | production of IgE (IgE) | anti-atopic dermatitis action (atopic dermatitis) | score of dermatitis (progress of the atopic dermatitis) [1] | appearance of the skin (photograph of representative mouse) ([1]; compared with the control group (Group 1), FIG. 3) | onset of dermatitis ([2]; 6 to 8 weeks after grouping, control: evident dermatitis on face and ears) | scores of dermatitis ([2]; FIG. 5) | onset of dermatitis ([2]; week four after grouping, control: five of six mice with dermatitis on the face) | level of serum total IgE (serum total IgE) |
| --- | --- | --- | --- | --- | --- | --- | --- | --- |
| OC[C@H]1O[C@H](OC[C@H]2O[C@H](O[C@]3(CO)O[C@H](CO)[C@@H](O)[C@@H]3O)[C@H](O)[C@@H](O)[C@@H]2O)[C@H](O)[C@@H](O)[C@H]1O [raffinose] | has an action for suppressing production of IgE | has an anti-atopic dermatitis action |  |  |  |  |  |  |
| OC[C@H]1O[C@@](CO)(O[C@H]2O[C@H](CO)[C@@H](O)[C@H](O)[C@H]2O)[C@@H](O)[C@@H]1O [saccharose, reference compound] |  |  | No effects were observed |  |  |  |  |  |
| OC[C@H]1O[C@H](OC[C@H]2O[C@H](OC[C@H]3O[C@H](O[C@]4(CO)O[C@H](CO)[C@@H](O)[C@@H]4O)[C@H](O)[C@@H](O)[C@@H]3O)[C@H](O)[C@@H](O)[C@H]2O)[C@H](O)[C@@H](O)[C@H]1O [stachyose] |  |  | progress of the atopic dermatitis was evidently blocked | An evident difference of the appearance of the skin was observed | no onset of dermatitis was observed at all | the effect of stachyose is evident | no onset of the dermatitis was observed | does not influence the level of IgE |
